One experiment concerns HCT116 cells. The experiment in a line: Cell proliferation PAD assay, HCT116. The class given is cell-based. Particulars: Homo sapiens, 48 hours. An excerpt:
(§1) Table 3 illustrates the inhibitory activity of the compounds of the invention determined by the PAD assay described above in a number of cell types. Apoptosis was not
(§2) Cell lines used are available from American Type Culture Collection (ATCC), for example, cell cultures containing A549 (ATCC# CCL-185), HeLa (ATCC# CCL-2), HCT116 ATTC# CCL-247), and H1299 (ATCC# CRL-5803) cells were maintained in T175 flasks following the ATCC recommended media and handling procedures. […] A 20,000 cells/ml solution was made for plating. Cells were plated in black Packard 96 well plates by placing 100 μl per well (2,000 cells per well). […] The definitions of the cell types used are as follows: A549 is lung carcinoma; HI 299 is non-small cell lung carcinoma; HI 155 is non-small cell lung carcinoma; AsPC-1 is pancreatic adenocarcinoma; Caov-3 is ovarian adenocarcinoma; COLO 205 is colorectal adenocarcinoma; DLD-1 colorectal adenocarcinoma; HCT116 is colorectal carcinoma; DU 145 is prostate carcinoma; ES-2 is ovarian clear cell carcinoma; H460 is large cell lung carcinoma; HELA is cervical adenocarcinoma; MIA PaCa-2 is pancreatice carcinoma; OVCAR-3 is ovarian adenocarcinoma; OVCAR8 is ovarian carcinoma; PC3 is prostate adenocarcinoma; SK-OV-3 is ovarian adenocarcinoma; SU86.86 is pancreatic carcinoma; TOV-21G is avarian clear cell carcinoma; U2OS is bone osteosarcoma; is ASPC-I is pancreatic adenocarcinoma; BXPC-3 is pabcreatic adenocarcinoma; HL60 is promyeloblast promyelocytic leukemia; K562 is bone marrow chronic myelogenous leukemia; L1210 is mouse lymphocytic leukemia; MOLT3 is T lymphoblast acute lymphoblastic leukemia; MOLT4 is T lymphoblast acute lymphoblastic leukemia; SW620 is colorectal adenocarcinoma; THP-1 is monocyte acute monocytic leukemia; U937 is histiocytic lymphoma; and UACC-257 is melanoma.
(§3) Compounds and additional media were added 24 hours after cell plating. A compound master plate was created with concentrations 500 times greater than the final concentration added to the cells. All compound testing was done in duplicate using 6.3 fold dilutions starting with 10 mM. All outside wells (and 4 internal wells) were DMSO controls. Taxol and at least one additional control were run on all plates. Three microliters of the compound master plate were added to deep well blocks containing 750 μl of RPMI media. One hundred microliters were transferred from the compound/media deep well blocks to the plated cells resulting in a 500 fold dilution of the compounds. Cells were grown at 37° C., 5% CO2 for 48 hours.
(§4) Cells to be analyzed by photography were fixed and stained. One hundred microliters of media were removed and 100 μl of 9.3% formamide was added to each well. Plates were left on the benchtop for 45 minutes. A staining solution containing 1.55 μl of 1 mg/ml DAPI added to 18.75 ml PBS was warmed for 15 minutes at 37° C. The cells were aspirated prior to washing with 100 μl of PBS. Seventy microliters of PBS were aspirated and 170 μl of the DAPI solution were added to each well of fixed cells. Plates were left at room temperature for one hour then aspirated and washed twice with 100 μl of PBS. The stained cells were left at 4° C. for a minimum of 16 hours before photographic analysis with Array Scan II (Cellomics). Analysis of the photographic images to determine numbers of live cells (proliferation), apoptotic cells and dead cells, were according to the methods described in U.S. Utility patent application Ser. No. 10/652,440, which incorporated herein in its entirety.

For another experiment, the system named is MIA PaCa-2 cells. The experiment in a line: Cell proliferation PAD assay, MIA PaCa-2. The class given is cell-based. Particulars: Homo sapiens, Miapaca2 cells, 9pt, 48 hours.
Description: as §1
(§5) Cell lines used are available from American Type Culture Collection (ATCC), for example, cell cultures containing A549 (ATCC# CCL-185), HeLa (ATCC# CCL-2), HCT116 ATTC# CCL-247), and H1299 (ATCC# CRL-5803) cells were maintained in T175 flasks following the ATCC recommended media and handling procedures. […] A 20,000 cells/ml solution was made for plating. Cells were plated in black Packard 96 well plates by placing 100 μl per well (2,000 cells per well). […]
(§6) Cells to be analyzed by photography were fixed and stained. […]

The subject of the next experiment is DLD-1 cells. The experiment in a line: Cell proliferation PAD assay, DLD-1. The class given is cell-based. Particulars: Homo sapiens, DLD1 cells, 6pt, 48 hours.
Description: as §1, §2, §3, §4

In the next experiment the test system is COLO 205 cells. Nature of the experiment: Cell proliferation PAD assay, COLO 205. The class given is cell-based. The settings on record: Homo sapiens, Colo205 cells, 9pt, 48 hours.
Description: as §1, §5, §6

A further experiment concerns A549 cells. Nature of the experiment: Cell proliferation PAD assay, A549. The class given is cell-based. Particulars: Homo sapiens, 48 hours. The essentials:
(§7)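 Plate 2,000 cells per well, then add compound after 24 h as duplicate 6.3-fold dilutions, with 10 mM master stock diluted 500-fold on transfer. Grow 48 h at 37 °C in 5% CO2, fix with formamide, stain nuclei with DAPI, and count cells by imaging.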

The next experiment concerns H1299 cells. Nature of the experiment: Cell proliferation PAD assay, H1299. The class given is cell-based. The settings on record: Homo sapiens, 48 hours. The essentials: as §7
In the next experiment the target is T1, TRAF6/Uev1A/Ubc13 (Homo sapiens, UniProt Q9Y4K3).
T1 sequence (Q9Y4K3 1-522): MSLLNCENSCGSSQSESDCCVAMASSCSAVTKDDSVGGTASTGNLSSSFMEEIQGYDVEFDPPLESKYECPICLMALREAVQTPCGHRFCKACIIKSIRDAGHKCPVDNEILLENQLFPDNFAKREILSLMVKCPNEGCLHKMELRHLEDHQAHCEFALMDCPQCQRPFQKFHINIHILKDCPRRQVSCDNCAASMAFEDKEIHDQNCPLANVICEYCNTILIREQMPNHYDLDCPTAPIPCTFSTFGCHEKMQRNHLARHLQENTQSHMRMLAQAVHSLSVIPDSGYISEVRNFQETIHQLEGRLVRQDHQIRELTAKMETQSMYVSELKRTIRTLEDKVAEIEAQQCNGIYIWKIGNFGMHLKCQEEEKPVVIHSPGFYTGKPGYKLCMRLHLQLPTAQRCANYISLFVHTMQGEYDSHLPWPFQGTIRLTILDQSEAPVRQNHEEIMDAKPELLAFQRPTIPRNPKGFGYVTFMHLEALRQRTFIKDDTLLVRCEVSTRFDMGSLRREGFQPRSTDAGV
Nature of the experiment: TRAF6/Uev1A/Ubc13 plate-based ubiquitin ligase assay. The class given is biochemical. The procedure, abridged:
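Ligase activity was read as luminescence from anti-Flag/HRP detection of Flag-ubiquitin bound to casein-blocked Ni-plates alongside His-ubiquitin after a 1 h room-temperature reaction. Buffer: 62.5 mM Tris pH 7.5, 6.25 mM MgCl2, 1.0 mM DTT, 2 μM ATP; E1, Uev1a/Ubc13 and TRAF6 added last to start. IC50s derived across compound concentrations.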

A further experiment has as its system HELA cells. Nature of the experiment: Cell proliferation PAD assay, HeLa. The experiment is classed as cell-based. Particulars: Homo sapiens, 6pt, 48 hours.
Description: as §1, §2, §3, §4

For another experiment, the system named is U2OS cells. Nature of the experiment: Cell proliferation PAD assay, U2OS. The experiment is classed as cell-based. The settings on record: Homo sapiens, 6pt, 48 hours.
Description: as §1, §2, §3, §4

Where two headings read alike, the source gives them in different places.

As for `O=S(=O)(Nc1ccc2cn[nH]c2c1)c1c(Cl)ccc2nonc12` [compound 219, 5-chloro-N-1H-indazol-6-yl-2,1,3-benzoxadiazole-4-sulfonamide], the IC50 with HCT116 cells (HCT-116, 6pt, read-out: HCT116 6pt) was less than 1000 nM; in the experiment on HCT116 cells (HCT-116, 9pt, read-out: HCT116 9pt), less than 1000 nM; in the experiment on MIA PaCa-2 cells, less than 1000 nM; in the experiment with DLD-1 cells, less than 1000 nM; in the experiment on COLO 205 cells, 1000 to 20000 nM; in the experiment with A549 cells (3pt, read-out: A549 3pt), 1000 to 20000 nM. In addition, the IC50 was no less than 20000 nM in the experiment with A549 cells (6pt, read-out: A549 6pt); 1000 to 20000 nM in the experiment on H1299 cells (NCI-H1299, 3pt, read-out: H1299 3pt); less than 1000 nM in the experiment with H1299 cells (NCI-H1299, 6pt, read-out: H1299 6pt); 1000 to 20000 nM against TRAF6/Uev1A/Ubc13; no less than 20000 nM in the experiment on HELA cells; less than 1000 nM in the experiment on U2OS cells.

Values taken from patent publication US20050282818A1, “Ubiquitin ligase inhibitors” (Rigel Pharmaceuticals, Inc., priority 2004, published 2005).
